Reference: EP4201929A1, “QUINOXALINE THIOREDOXIN REDUCTASE INHIBITORS” (geneXplain GmbH, priority 2021, dated 2023)

Tests used:
Assay in all cases: Growth suppression, cancer cell line panel (resazurin)
Assay type in all cases: cell-based
[1] = tested on: BT549; settings: BT549 breast, 48 hours
Description: (§1) Breast, colon, ovarian, cervical, liver and lung carcinoma cell lines were grown in DMEM supplemented with 10% FBS, and antibiotics were cultured at 37 °C and 5% CO2. Osteosarcoma, melanoma, lymphoma, neuroblastoma and leukemia cell lines were cultured in RPMI 1640 with 10% FBS and antibiotics. An oxygen concentration of 0.3% was obtained by flushing a sealed box containing the cells with premixed gas composed of 95% nitrogen (N2) and 5% CO2 (AGA AB, Sweden). To obtain an oxygen concentration of 0.05%, the cells were flushed with the premixed gas continuously throughout the experiment.
(§2) Cells were grown in 96-well plates at a density of 3000 cells per well with or without doxycycline and treated with compounds. After 48 hours of incubation the proliferative cell reagent resazurin (Thermo Fisher Scientific) was added to the cells. The degree of resazurin reduction, which reflects cell viability, was measured by microplate reader by monitoring the absorbance at 570 nm and 600 nm, according to the manufacturer.
(§3) Growth suppression by the soluble compound 1d*HCl in a panel of 27 cancer cell lines. The panel of cancer cell lines, including carcinomas of breast (MDA-MB231, SKBR3, T47D, MCF7; BT549, BT20, MDA-MB468), colon, (SW480, RKO, HT29, HCT116) ovarian (OVCAR3, OVCAR4, OVCAR8), cervical (SW756, C33A), liver (HEPG2) and lung (H23), osteosarcoma (SJSA and U2OS), melanoma (ME180), lymphoma (Raji, HDLM2), neuroblastoma (SKNAS, IMR32) and leukemia (NB4, K562) were treated with increasing concentrations of 1d*HCl: 0.4; 0.8; 1.6; 3.2; 6.4; 12.8; 25.6 µM in 96-well plates. After 48 hours of incubation the proliferative cell reagent resazurin was added to the cells. The degree of resazurin reduction, which reflects cell viability, was measured by microplate reader by monitoring the absorbance at 570 nm and 600 nm, according to the manufacturer, and the IC50 and AUC (area under curve) were determined (Table 2). As could be seen in Table 2, 1d*HCl suppressed the growth of cancer cell lines of a different origin, including carcinomas, osteosarcomas, melanoma, lymphoma, leukemia and neuroblastoma. These findings open up a possibility of the application of the present invention in anti-cancer therapy in a broad range of tumor types. Table 2: a) Breast cancer

[2] = tested on: H23; settings: H23 lung, 48 hours
Description: as §1, §2, §3

[3] = tested on: HCT116; settings: HCT116 colon, 48 hours
Description: as §1, §2, §3

[4] = tested on: HDLM2; settings: HDLM2 lymphoma, 48 hours
Description: as §1, §2, §3

[5] = tested on: HT29; settings: HT29 colon, 48 hours
Description: as §1, §2, §3

[6] = tested on: HepG2; settings: HepG2 liver, 48 hours
Description: as §1, §2, §3

[7] = tested on: IMR32; settings: IMR32 neuroblastoma, 48 hours
Description: as §1, §2, §3

[8] = tested on: K562; settings: K562 leukemia, 48 hours
Description: as §1, §2, §3

[9] = tested on: MCF7; settings: MCF7 breast, 48 hours
Description: as §1, §2, §3

[10] = tested on: MDA- MB231; settings: MDA-MB231 breast, 48 hours
Description: as §1, §2, §3

[11] = tested on: ME180; settings: ME180 (table section Cervical), 48 hours
Description: as §1, §2, §3

[12] = tested on: NB4; settings: NB4 leukemia, 48 hours
Description: as §1, §2, §3

[13] = tested on: OVCAR4; settings: OVCAR4 ovarian, 48 hours
Description: as §1, §2, §3

[14] = tested on: OVCAR8; settings: OVCAR8 ovarian, 48 hours
Description: as §1, §2, §3

[15] = tested on: RKO; settings: RKO colon, 48 hours
Description: as §1, §2, §3

[16] = tested on: Raji; settings: Raji lymphoma, 48 hours
Description: as §1, §2, §3

[17] = tested on: SJSA; settings: SJSA osteosarcoma, 48 hours
Description: as §1, §2, §3

[18] = tested on: SKBR3; settings: SKBR3 breast, 48 hours
Description: as §1, §2, §3

[19] = tested on: SW480; settings: SW480 colon, 48 hours
Description: as §1, §2, §3

[20] = tested on: SW756; settings: SW756 cervical, 48 hours
Description: as §1, §2, §3

[21] = tested on: T47D; settings: T47D breast, 48 hours
Description: as §1, §2, §3

[22] = tested on: U2OS; settings: U2OS osteosarcoma, 48 hours
Description: as §1, §2, §3

[23] = Homo sapiens, resazurin, read-out: ICso

Question: What does the source list for `Cl.N#Cc1c(-c2cccnc2)[n+]([O-])c2cc(F)c(N3CCOCC3)cc2[n+]1[O-]` [1d*HCl, 6-Fluoro-7-(morpholin-4-yl)-3-(pyridin-3-yl)quinoxaline-2-carbonitrile-1,4-dioxide hydrochloride]?
Answer: AUC ([1]; area under curve, 0.4-25.6 µM): 2,52; IC50 ([1]; Homo sapiens, BT-549, resazurin): 1700 nM; AUC ([2]; area under curve, 0.4-25.6 µM): 5,38; IC50 ([2]; Homo sapiens, NCI-H23, resazurin, read-out: ICso): 3540 nM; AUC ([3]; area under curve, 0.4-25.6 µM): 1,37; IC50 ([3]; Homo sapiens, HCT-116, resazurin): 860 nM; AUC ([4]; area under curve, 0.4-25.6 µM): 4,68; IC50 ([4]; Homo sapiens, HDLM-2, resazurin): 1270 nM; AUC ([5]; area under curve, 0.4-25.6 µM): 4,77; IC50 ([5]; Homo sapiens, HT-29, resazurin): 3500 nM; AUC ([6]; area under curve, 0.4-25.6 µM): 4,54; IC50 [6, 23]: 3590 nM; IC50 ([7]; Homo sapiens, IMR-32, resazurin, read-out: ICso): 5150 nM; AUC ([7]; area under curve, 0.4-25.6 µM): 6,40; IC50 ([8]; Homo sapiens, resazurin): 2950 nM; AUC ([8]; area under curve, 0.4-25.6 µM): 4,39; IC50 ([9]; Homo sapiens, resazurin): 2540 nM; AUC ([9]; area under curve, 0.4-25.6 µM): 3,64; IC50 ([10]; Homo sapiens, MDA-MB-231, resazurin): 780 nM; AUC ([10]; area under curve, 0.4-25.6 µM): 1,21; IC50 ([11]; Homo sapiens, ME-180, resazurin): 2230 nM; AUC ([11]; area under curve, 0.4-25.6 µM): 2,72; IC50 ([12]; resazurin): variable; AUC ([12]; area under curve, 0.4-25.6 µM): 25,4; IC50 ([13]; Homo sapiens, OVCAR-4, resazurin): 1570 nM; AUC ([13]; area under curve, 0.4-25.6 µM): 3,7; IC50 ([14]; Homo sapiens, OVCAR-8, resazurin): 2360 nM; AUC ([14]; area under curve, 0.4-25.6 µM): 2,98; IC50 ([15]; Homo sapiens, resazurin): 538 nM; AUC ([15]; area under curve, 0.4-25.6 µM): 0,942; IC50 ([16]; Homo sapiens, resazurin): 1220 nM; AUC ([16]; area under curve, 0.4-25.6 µM): 2,93; IC50 ([17]; resazurin, read-out: ICso): 4080 nM; AUC ([17]; area under curve, 0.4-25.6 µM): 4,96; IC50 ([18]; Homo sapiens, SK-BR-3, resazurin): 2130 nM; AUC ([18]; area under curve, 0.4-25.6 µM): 3,06; IC50 ([19]; Homo sapiens, resazurin): 3720 nM; AUC ([19]; area under curve, 0.4-25.6 µM): 4,78; IC50 ([20]; Homo sapiens, resazurin): 1540 nM; AUC ([20]; area under curve, 0.4-25.6 µM): 2,84; IC50 ([21]; Homo sapiens, resazurin): 2740 nM; AUC ([21]; area under curve, 0.4-25.6 µM): 3,93; IC50 [22, 23]: 1040 nM; AUC ([22]; area under curve, 0.4-25.6 µM): 2,10
